The record followed here is a melting point compilation (Tetko et al.; mined from patent text by program, amines drawn as free bases though some values may be those of a salt).

Molecules are shown by their SMILES.

For orientation: melting point means the temperature, or range, at which the solid turns liquid. `CC[C@H](C)[C@H](NC(=O)OCc1ccccc1)C(=O)N[C@@H](C=O)Cc1c[nH]c2ccccc12`: the melting point was in the range of 163 to 164 °C.
The value for `O=C(Nc1ccc(-n2nc(C3CC3)cc2C2CC2)cc1)c1ccc2nc[nH]c2c1` was 170 to 176 °C; that for `CC(C)Cn1c(=O)n(C)c(=O)c2c1ncn2CCCO` was 135 to 137 °C.
Compound `N=C(N)Nc1nc(-c2nc(N)n[nH]2)cs1` returned a melting point of 173 to 175 °C.
In turn, `CC(C)(C)OC(=O)N1CCC[C@H](O)[C@@H]1c1ccc(Cl)cc1` (relative stereo) came in with a melting point of 95 to 96 °C.
The value for `Cc1cc(C2OCCO2)ncc1[N+](=O)[O-]` was 77 to 79 °C; that for `COc1cccc(C2=CC(=O)N(C)C2=O)c1` was 138 to 146 °C.
The same measure for `CCOCc1nc2c(N)nc3ccccc3c2n1CCCC(=O)N(C)OC`: 163 to 165 °C.
`CC(=O)N1c2c(ccn3c(C)c(C)nc23)[C@@H](O)[C@H](O)[C@H]1c1ccccc1` yielded a melting point of 260 to 261 °C.
The compound `CC(C)(C)c1ccc(S(=O)(=O)N2c3ccccc3C[C@H]2C(=O)NCc2ccc(N)cc2)cc1` registered a melting point of 83 to 87 °C.
Regarding `CCCC1=NC(=NOC(=O)NC)SC1(C)C`, the melting point lay in the range of 112 to 114 °C.
The same measure for `CC(C)(C)OC(=O)CN1CCSC1=NC#N`: 143 to 144 °C; for `O=C(NCCCCC1CCSS1)N1CCCCC1` (centres undefined): 90 to 91 °C.
The compound `Nc1cc(-c2ccoc2)ccc1Nc1cccc(-n2ccnc2)c1` yielded a melting point of 188 to 189 °C.
As to `COC(=O)c1ccc(CCCCO)cc1`, the melting point lay within 95.5 to 96 °C.
The value for `NC(=O)c1nc(-c2cccc(O)c2)nc2c1[nH]c(=O)n2[C@@H]1CCOC1` was 353 to 355 °C.
With `O=C1C=CC(=O)C2=C1OCCO2`, the melting point is 156 °C.
The value for `CCCCCN1CC[C@@H](c2ccccc2Cl)[C@H](CO)C1` (racemic) was 101 to 102 °C; that for `O=C1C[C@@H](O)C[C@H](/C=C/c2c(Cl)cc(Cl)cc2Oc2ccccc2)O1` (relative stereo) was 124 to 126 °C; that for `COc1ccc(S(=O)(=O)Nc2ccccc2NC(=O)c2ccccc2)cc1OC` was 183 to 184 °C.
The same measure for `CCCOc1ccc2c(c1)C(c1ccccc1OCC(=O)O)C(C(=O)O)C2c1ccc2c(c1)OCO2` (centres undefined): 169 to 170 °C; for `Fc1cc(Br)c(OCc2ccccc2)c(Br)c1`: 83 °C; for `O=C(NC(Cc1ccc(C(F)(F)F)cc1)C(=O)c1ccc(F)cc1)c1cc(=O)cco1` (centres undefined): 115 to 116 °C.
Turning to `CC(CCNC1=Nc2cccc3cccc1c23)c1cccnc1` (centres undefined), the melting point is 160 to 163 °C.
The value for `CN(c1cccc2cc(C3=NCC4(CCC5(CC4)OCCO5)S3)[nH]c12)S(=O)(=O)c1cccs1` was 224 to 225 °C; that for `COC(=O)Cc1ccc(N)c(O)c1` was 112 to 114 °C.
The value for `Nc1cc(-c2cc(=O)c(C(=O)O)cn2-c2ccc(F)cc2)ccc1O` was 231 to 233 °C; that for `CCC1Nc2c(cc(C)nc2C)N1c1ccc(CCNC(=O)NS(=O)(=O)c2ccc(C)cc2)cc1` (centres undefined) was 143 °C; that for `Cn1cc(C2=C(c3cn(CCCN=[N+]=[N-])c4ccccc34)C(=O)NC2=O)c2ccccc21` was 222 to 224 °C.
The value for `COC(=O)[C@H](Cc1cc(Cl)c(OCCc2coc(-c3cccc(OCc4ccccc4)c3)n2)c(Cl)c1)NC(=O)C(F)(F)F` was 111 to 113 °C.
For `Cc1cccc2c1NC(C(Cl)(Cl)Cl)OC2` (centres undefined), the melting point was 69 to 70 °C.
The same measure for `CCC(=O)Nc1c(C)nn(C)c1C#N`: 153 to 155 °C.
The value for `Nc1ncccc1OCc1ccccc1Cl` was 95 to 100 °C.
The value for `O=C(O)c1cccc(-c2cc(-c3ccccc3)on2)c1` was 250 to 251 °C; that for `CCOC(=O)C(=Cc1ccc(OC)c(O)c1)C(=O)OCC` was 81 to 83 °C; that for `COc1cccc2c1CN(c1c(F)cc3c(=O)c(C(=O)O)cn(-c4ccc(F)cc4)c3c1F)C2` was 278 to 284 °C.
The compound `Cc1c(OC(F)F)ccnc1CSc1nc2ccc(OC(F)F)cc2[nH]1` registered a melting point of 181 to 182 °C.
The same measure for `O=C1CCC(c2cc(F)c(Br)cc2F)C1` (centres undefined): 63 to 65 °C; for `Cc1nn(C)c2c(=O)[nH]cnc12`: 303 to 305 °C; for `CSC(=NS(=O)(=O)c1ccc(C)cc1)N1CCc2nc(N)sc2C1`: 191 to 195 °C.
Consider `CC(C)(C)OC(=O)N1CCC(CCC(=O)N2CCC[C@@H](C(=O)O)C2)CC1`, for which the melting point was 102 to 104 °C.
The same measure for `CS(=O)(=O)Nc1ccc(CC#N)c2cn[nH]c12`: 223 to 225 °C; for `COCn1c(C(O)(c2ccc(Cl)cc2)c2ccc(Cl)cc2)nc(C)c1C`: 151 °C.
The value for `Cn1ncc(NCCCN2CCC(c3noc4cc(F)ccc34)CC2)c(Cl)c1=O` was 200 to 202 °C; that for `CCSc1cc(C)nc(SCC)c1NC(=O)CCCCCSc1nc2ccccc2[nH]1` was 139 to 142 °C; that for `Cc1cc(=O)oc2nn(Cc3ccncc3)c(C)c12` was 177 to 180 °C.
On to `COc1c2c(c(OC)c(OC)c1OC)CCC(CCO)CC2`, for which the melting point lay in the range of 64 to 66 °C.
Turning to `O=C(O)c1ccccc1COc1cccc(Br)c1`, the melting point fell in the range of 158 to 159 °C.
The same measure for `COc1nc(C)c2c(c1C#N)CCCC2`: 116 °C; for `CCOC(=O)NNC(C)=S`: 54 to 57.5 °C.
The value for `COc1cccc(C(=O)Nc2nnn[nH]2)c1[N+](=O)[O-]` was 271 °C; that for `CCCn1c(=O)c2[nH]c(-c3cc(C)n(CC(=O)Nc4ccc(N(C)C)cc4)n3)nc2n(CCC)c1=O` was over 300 °C; that for `Fc1ccc([C@H]2CC[C@H](NCc3ccn4c(CC5CC5)nnc4c3C(F)(F)F)CC2)c(F)c1` was 110 °C.
The value for `COc1cc(OC)cc(N2CCN(C(=O)[C@](C)(C#N)[C@H](c3ccccc3OC)c3cccc4ccccc34)CC2)c1` was 186 to 188 °C; that for `CCn1cc(C(=O)O)c(=O)c2cc(F)c(N3CCN(S(=O)(=O)c4ccc(OC)cc4)CC3)c(F)c21` was 252 to 253 °C.
Take `COc1cc(COc2ccc(S(=O)(=O)c3ccc(C)nc3Nc3c(C)cc(C)cc3C)cc2)cc(OC)c1`: the melting point is 107 to 109 °C.
The compound `COc1c(OC(C)=O)c(C)c(CCCC(=O)O)c(OC(C)=O)c1OC` registered a melting point of 125 to 127 °C.
The same measure for `O=c1nc(-c2ccnc(C3CNCCO3)c2)sc2ccccc12` (centres undefined): 157 to 158 °C; for `NCC1CCCN(c2c(F)cc3c(=O)c(C(=O)O)cn(C4CC4)c3c2F)C1` (centres undefined): 242 to 243 °C; for `Cc1cccc(S(=O)(=O)n2ccc(Br)c2)c1C#N`: 98 to 100 °C.
The value for `N#Cc1ccc([C@@H]2CNC[C@@]23NC(=O)N(c2cc(Cl)cc(Cl)c2)C3=O)cc1` (relative stereo) was 198 °C.
`CCc1c(CC(O)N2CCN(c3cc(C)ccn3)CC2)c2cccc3c2n1CCC3` (centres undefined) displayed a melting point of 60 °C.
The value for `COC(=O)c1cc(-c2ccccn2)n(-c2ccc(Cl)nn2)n1` was 164 to 165 °C; that for `CCCN(CCC)c1ccc(S(=O)(=O)NCCCCC(=O)O)cc1` was 95 to 98 °C.
